Target: SSTR2 (Homo sapiens, UniProt P30874)
Experiment: SSTRs Gi-mediated cAMP inhibition, GloSensor, HEK293, 5 μM forskolin, 15 min room temperature (SSTR2 wild-type);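 on Bottom (best-fit value): normalized to the maximal wild-type response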;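 on Bottom (best-fit): normalized to the maximal wild-type response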;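 on Span (best-fit value): normalized to the maximal wild-type response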;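 on Span (best-fit): normalized to the maximal wild-type response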;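 on Top (best-fit value): normalized to the maximal wild-type response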;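 on Top (best-fit): normalized to the maximal wild-type response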
Type: cell-based
Design: Best-fit Top, cAMP inhibition / Span, cAMP inhibition / Best-fit Bottom / Best-fit Top / Best-fit Span / Bottom / Span (best-fit value), cAMP inhibition / Top (best-fit value), cAMP inhibition: scale not given here
Procedure: The levels of the intracellular 3′, 5′-cyclic AMP (cAMP) were measured by the GloSensor cAMP assay (Promega) as described in the previous studies[28],[41] which has been widely used. The human full-length SSTRs and mutants were cloned into the pcDNA3.1+ vector with a HA signal sequence followed by a Flag tag at the N-terminus. HEK293 cells (ATCC, CRL-1573) were seeded into 6-well microplates at a density of 1.0 × 10^6 cells/well and cultured for 24 h at 37 °C with 5% CO2. Cells were then co-transfected with SSTR wild-type or mutants and GloSensor plasmids. After 24 h of transfection, the cells were dissociated with TrypLE™ Express Enzyme (1X) (Thermo Fisher Scientific) and collected by centrifugation at 500 × g for 5 min. Then the collected cells were suspended in Hank’s balanced salt solution [HBSS (Thermo Fisher Scientific)] supplemented with […] (YEASEN), and then the suspension cells were seeded into 96-well plates with 90 μl/well. After incubating at room temperature for 40 min, 5 μM forskolin and ligands diluted in HBSS were added to each well and the plates were incubated at room temperature for 15 min. […] were measured using the Synergy H1 microplate reader (BioTek) and the data presented are means of at least three independent experiments.

Sequence of SSTR2 (P30874 whole entry): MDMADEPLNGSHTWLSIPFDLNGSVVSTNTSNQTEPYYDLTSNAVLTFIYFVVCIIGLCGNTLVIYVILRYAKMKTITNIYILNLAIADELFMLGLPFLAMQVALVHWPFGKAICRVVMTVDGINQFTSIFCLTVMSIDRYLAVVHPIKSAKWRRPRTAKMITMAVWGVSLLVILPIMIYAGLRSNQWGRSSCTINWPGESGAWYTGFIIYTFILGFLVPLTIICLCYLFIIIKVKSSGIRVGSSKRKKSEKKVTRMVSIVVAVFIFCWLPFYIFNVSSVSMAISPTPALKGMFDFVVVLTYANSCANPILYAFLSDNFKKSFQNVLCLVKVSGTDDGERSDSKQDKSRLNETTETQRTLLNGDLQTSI

C[C@@H](O)[C@@H]1NC(=O)[C@H](CCCCN)NC(=O)[C@@H](Cc2c[nH]c3ccccc23)NC(=O)[C@H](Cc2ccccc2)NC(=O)[C@@H](NC(=O)[C@H](N)Cc2ccccc2)CSSC[C@@H](C(=O)N[C@H](CO)[C@@H](C)O)NC1=O [octreotide]
Emax (HEK293, Gi signaling, SSTR2 WT, n=6, read-out: Emax): 100% | Activation potency level (SSTR2, Fig. 1): nanomolar level | Bottom (best-fit value) (WT-1, run 1, batch of I284A): 6.42 | Span (best-fit value) (WT-1, run 1, batch of I284A): 102.3 | Top (best-fit value) (WT-1, run 1, batch of I284A): 108.8 | Bottom (best-fit value) (WT-1, run 1, batch of P286A): 0.4925 | Span (best-fit value) (WT-1, run 1, batch of P286A): 108.4 | Top (best-fit value) (WT-1, run 1, batch of P286A): 108.9 | Bottom (best-fit value) (WT-1, run 1, batch of S285A): -1.909 | Span (best-fit value) (WT-1, run 1, batch of S285A): 108.3 | Top (best-fit value) (WT-1, run 1, batch of S285A): 106.4 | Bottom (best-fit value) (WT-1, run 1, batch of T194A): 5.269 | Bottom (best-fit value) (WT-1, run 1, batch of T287A): 5.269 | Span (best-fit value) (WT-1, run 1, batch of T287A): 95.18 | Top (best-fit value) (WT-1, run 1, batch of T287A): 100.5 | LogEC50 (best-fit value) (WT-1, run 1, batch of W188A): -10.06 | Span (best-fit value) (WT-1, run 1, batch of W188A): 114.6 | Top (best-fit value) (WT-1, run 1, batch of W188A): 120.5 | Best-fit Bottom (WT-1 of D295A set): -0.7512 | Best-fit Span (WT-1 of D295A set): 96.76 | Best-fit Top (WT-1 of D295A set): 96 | Span (best-fit) (WT-1 of F208A set): 95.18 | Bottom (best-fit) (WT-1 of F265A set): 9.705 | Top (best-fit) (WT-1 of F265A set): 105 | Bottom (best-fit) (WT-1 of F272A set): 5.108 | Span (best-fit) (WT-1 of F272A set): 89.16 | Top (best-fit) (WT-1 of F272A set): 94.27 | Best-fit Bottom (WT-1 of F294A set): 5.269 | Best-fit Span (WT-1 of F294A set): 95.18 | Best-fit Top (WT-1 of F294A set): 100.5 | Best-fit Bottom (WT-1 of K291A set): 7.96 | Best-fit Span (WT-1 of K291A set): 79.36 | Best-fit Top (WT-1 of K291A set): 87.32 | Best-fit Bottom (WT-1 of L290A set): -1.909 | Best-fit Span (WT-1 of L290A set): 108.3 | Best-fit Top (WT-1 of L290A set): 106.4 | Bottom (best-fit) (WT-1 of N276A set): 7.96 | Span (best-fit) (WT-1 of N276A set): 79.36 | Top (best-fit) (WT-1 of N276A set): 87.32 | Bottom (best-fit) (WT-1 of P220A set): 21.28 | Span (best-fit) (WT-1 of P220A set): 73.55 | Top (best-fit) (WT-1 of P220A set): 94.83 | Best-fit Bottom (WT-1 of S279A set): 5.108 | Best-fit Span (WT-1 of S279A set): 89.16 | Best-fit Top (WT-1 of S279A set): 94.27 | Bottom (best-fit) (WT-1 of W269A set): 6.42 | Span (best-fit) (WT-1 of W269A set): 102.3 | Top (best-fit) (WT-1 of W269A set): 108.8 | Best-fit Bottom (WT-1 of Y302A set): 6.42 | Best-fit Span (WT-1 of Y302A set): 102.3 | Best-fit Top (WT-1 of Y302A set): 108.8 | Bottom (best-fit value) (WT-2, run 2, batch of I284A): -0.5171 | Span (best-fit value) (WT-2, run 2, batch of I284A): 111.1 | Top (best-fit value) (WT-2, run 2, batch of I284A): 110.6 | Bottom (best-fit value) (WT-2, run 2, batch of P286A): 4.88 | LogEC50 (best-fit value) (WT-2, run 2, batch of P286A): -10.01 | Span (best-fit value) (WT-2, run 2, batch of P286A): 102.3 | Top (best-fit value) (WT-2, run 2, batch of P286A): 107.2 | Bottom (best-fit value) (WT-2, run 2, batch of S285A): 5.269 | Span (best-fit value) (WT-2, run 2, batch of S285A): 95.18 | Top (best-fit value) (WT-2, run 2, batch of S285A): 100.5 | Bottom (best-fit value) (WT-2, run 2, batch of T194A): 2.714 | Bottom (best-fit value) (WT-2, run 2, batch of T287A): -7.526 | Span (best-fit value) (WT-2, run 2, batch of T287A): 120.1 | Top (best-fit value) (WT-2, run 2, batch of T287A): 112.6 | Bottom (best-fit value) (WT-2, run 2, batch of W188A): 4.88 | LogEC50 (best-fit value) (WT-2, run 2, batch of W188A): -10.01 | Span (best-fit value) (WT-2, run 2, batch of W188A): 102.3 | Top (best-fit value) (WT-2, run 2, batch of W188A): 107.2 | Best-fit Bottom (WT-2 of D295A set): -0.7512 | Best-fit Span (WT-2 of D295A set): 96.76 | Best-fit Top (WT-2 of D295A set): 96 | Span (best-fit) (WT-2 of F208A set): 79.83 | Bottom (best-fit) (WT-2 of F265A set): 21.28 | Span (best-fit) (WT-2 of F265A set): 73.55 | Top (best-fit) (WT-2 of F265A set): 94.83 | Bottom (best-fit) (WT-2 of F272A set): 5.269 | Span (best-fit) (WT-2 of F272A set): 95.18 | Top (best-fit) (WT-2 of F272A set): 100.5 | Best-fit Bottom (WT-2 of F294A set): 2.714 | Best-fit Span (WT-2 of F294A set): 101.1 | Best-fit Top (WT-2 of F294A set): 103.8 | Best-fit Bottom (WT-2 of K291A set): 0.9124 | Best-fit Span (WT-2 of K291A set): 101.5

From paper PMC9944328 (Nature Communications, 2023)
